# Measurements taken from patent publication US6562867B2, “Carbamate compounds for use in preventing or treating bipolar disorder” (Ortho-McNeil Pharmaceutical, Inc., priority 2001, dated 2003).
# Experiments:
# [1] = tested on: electrically kindled rats (Stage 5 seizures); experiment: Electrically kindled rat model (corneal electrodes); type: in vivo, Wistar rats; settings: one hour after administration; for % Protection: 100% minus % Seizure Activity
# Text: A similar effect for the enantiomer of Formula (Ib) was also found in the electrically kindled rat model (Racine R., J. Clin. Neurophysiol., 1972, 32, 281-294), an alternative model of kindling. Electrical stimulation through corneal electrodes induces a progression of behavioral seizures similar to those observed in hippocampal kindling.
# Adult male Wistar rats were electrically kindled for 4 seconds (8 mA; 60 Hz) via corneal electrodes for a minimum of Stage 5 seizures.
# One hour after oral administration, % Seizure Activity was assessed as a combined score of seizure activity for each animal for the total number of animals per group; % Protection is derived by subtracting % Seizure Activity om 100%.
# hippocampal kindled rats = experiment: Hippocampal kindled rat model; type: in vivo, Sprague-Dawley rats; settings: for # Protected/# Tested / Afterdischarge Duration (sec) ± S.E.M. / Seizure Score ± S.E.M.: time of test 15 min; for Seizure Score ± S.E.M.: stages 1-5
# Method: In the hippocampal kindling model (Lothman E W, et al., Epilepsy Res., 1988, 2(6) 367-79), adult male Sprague-Dawley rats are surgically implanted with bipolar electrodes. Seizure score was assessed using the following stages: (1) mouth and facial movements; (2) above symptoms plus head nodding; (3) above symptoms plus forelimb clonus;(4) above symptoms plus rearing; and (5) above symptoms plus falling.
smiles,measurement,setting,value
NC(=O)OC[C@@H](O)c1ccccc1Cl [Formula (Ib)],% Seizure Activity,[1]; 1 mg/kg oral,93.3%
same,% Protection,[1]; 1 mg/kg oral,6.7%
same,% Seizure Activity,[1]; 3 mg/kg oral,46.7%
same,% Protection,[1]; 3 mg/kg oral,53.3%
same,% Seizure Activity,[1]; 10 mg/kg oral,33.3%
same,% Protection,[1]; 10 mg/kg oral,66.7%
same,% Seizure Activity,[1]; 100 mg/kg oral,0%
same,% Protection,[1]; 100 mg/kg oral,100%
same,ED50,"[1]; Rattus norvegicus, 1 h, oral, expression of Stage 5 seizures",4.2 mg/kg
same,# Protected/# Tested,hippocampal kindled rats; 12.5 mg/kg intraperitoneally,2/7
same,Afterdischarge Duration (sec) ± S.E.M.,hippocampal kindled rats; 12.5 mg/kg intraperitoneally,52.00 ± 10.88 s
same,Seizure Score ± S.E.M.,hippocampal kindled rats; 12.5 mg/kg intraperitoneally,3.43 ± 0.53
same,# Protected/# Tested,hippocampal kindled rats; 25 mg/kg intraperitoneally,4/7
same,Afterdischarge Duration (sec) ± S.E.M.,hippocampal kindled rats; 25 mg/kg intraperitoneally,38.29 ± 13.48 s
same,Seizure Score ± S.E.M.,hippocampal kindled rats; 25 mg/kg intraperitoneally,2.29 ± 0.78
same,# Protected/# Tested,hippocampal kindled rats; 37.5 mg/kg intraperitoneally,5/7
same,Afterdischarge Duration (sec) ± S.E.M.,hippocampal kindled rats; 37.5 mg/kg intraperitoneally,38.00 ± 11.87 s
same,Seizure Score ± S.E.M.,hippocampal kindled rats; 37.5 mg/kg intraperitoneally,2.29 ± 0.75
same,ED50,"hippocampal kindled rats; Rattus norvegicus, ip, intraperitoneally, 95% confidence interval of 12.5 to 37.5 mg/kg, read-out: calculated ED50 for reduction of the seizure score from 5 to 3 or less",~22.5 mg/kg
